Test results from patent US20240262909A1, “TIM-3 MODULATES ANTI-TUMOR IMMUNITY BY REGULATING INFLAMMASOME ACTIVATION” (THE BRIGHAM AND WOMEN'S HOSPITAL, INC., priority 2021, published 2024).

Experiments:
MC38-OVA tumor = MC38-OVA tumor growth and weight in Tim3fl.fl and Tim3fl.flxCD11c cre mice under inflammasome pathway inhibition; assay type: in vivo; conditions: Tim-3cko mice, 8 mg/kg
Source text: FIGS. 4A-4W: Loss of Tim3 on DC promotes inflammasome activation. (FIG. 4A) Unidirectional analysis of the fraction of DCs expressing ligand X and the fraction of T cells expressing the cognate Receptor; Ligand (MigDC): Receptor (CD8) interaction from WT (left) and Tim3cko (right) tumors. (FIG. 4B) Bar plot of data from FIG. 4A. (FIG. 4C). ECDF plots showing enrichment of IL-18 signature and (FIG. 4D) IL-1 signature in WT and Tim3^ckoCD8+ TILs. (FIG. 4E) ECDF plot of enrichment score for inflammasome signature in WT or Tim3^cko migratory DC, (p=1.5*10^−03), (FIG. 4F) Dot plot of selected genes from inflammasome signature. (FIG. 4G) ECDF plot of enrichment score for Oxidative Stress signature, (FIG. 4H) Dot plot of selected genes from Oxidative Stress signature. (FIG. 4I) MC38-OVA (0.5×10^6 cells) were subcutaneously implanted into Tim3^fl.fl and Tim3^fl.flxCD11c cre mice and on D14 tumors mononuclear cells were isolated and incubated with DHR123 for 30 minutes followed by flow-cytometric analysis of activated DHR123 as a measure of ROS activity in tumor infiltrating DC. […]
The C57BL/6-derived colon carcinoma MC38 and MC38-OVAdim were maintained at 37° C. with 5% CO2 in DMEM medium supplemented with 10% heat-inactivated fetal calf serum, penicillin, and streptomycin and 1% Sodium Pyruvate. […] Tumor size was determined by the formula L×W where L=length, W=width on the indicated days. […]

MC38-OVAdim tumor = MC38-OVAdim tumor growth and weight in Tim3fl.fl and Tim3fl.flZbtb46 cre mice with or without NAC; assay type: in vivo; conditions: Tim3cko mice, NAC daily in drinking water 40 mM
Source text: (§1) To investigate the effect of oxidative stress in Tim3^cko tumor bearing animals the inventors implanted Tim3^fl.fl and Tim3^fl.flZbtb46 cre mice with MC38-OVAdim and treated with or without antioxidant N-Acetyl-Cysteine (NAC) for the duration of the experiment. […] To determine whether mitigation of oxidative stress in Tim3^cko tumors also affected IL-1β levels intratumorally, the inventors prepared tumor supernatants and determined the levels of IL-1β in WT and Tim3cko animals treated with or without NAC.
(§2) The C57BL/6-derived colon carcinoma MC38 and MC38-OVAdim were maintained at 37° C. with 5% CO2 in DMEM medium supplemented with 10% heat-inactivated fetal calf serum, penicillin, and streptomycin and 1% Sodium Pyruvate. The C57BL/6-derived melanoma cell lines-B16 and B16-OVA-transfected clone were maintained at 37° C. with 5% CO2 in RPMI medium supplemented with 10% heat-inactivated fetal calf serum, penicillin, and streptomycin. MC38- OVA^dim (0.5×10^6), B16F10/B16-OVA (0.25×10^6) and MC38 (1.0×10^6) cells were injected subcutaneously in 100 μl PBS on the flank. Tumor size was determined by the formula L×W where L=length, W=width on the indicated days. In some experiments, mice were treated with anti-IL-1β (B122) and anti-IL-18 (YIGIF74-1 G7) or appropriate control Hamster Ig and Rat IgG2a (all at 8 mg/kg) i.p. on days 3, 6, 9 post tumor implantation. […]

IL-1β = IL-1β levels in tumor supernatants of WT and Tim3cko animals with or without NAC; assay type: in vivo, mice; conditions: Tim3cko tumors; NAC in drinking water 40 mM
Source text: as §1, §2

Structure (SMILES) | protective anti-tumor immunity observed in the Tim-3cko (MC38-OVA tumor) | protective inhibition of tumor growth (tumor growth) (MC38-OVAdim tumor) | protective inhibition of tumor growth (tumor weights post-harvest) (MC38-OVAdim tumor) | elevated intratumoral IL-1β levels (tumor supernatants) (IL-1β)
CC(C)(O)c1coc(S(=O)(=O)[N-]C(=O)Nc2c3c(cc4c2CCC4)CCC3)c1.[Na+] [CRID3] | abolished the protective anti-tumor immunity |  |  | 
CC(=O)N[C@@H](CS)C(=O)O [NAC, N-Acetyl-Cysteine] |  | completely abrogated | completely abrogated | completely reversed
